# Data as given in patent US11447786B2, “Systems and methods for cellular reprogramming of a plant cell” (PIONEER HI-BRED INTERNATIONAL, INC., priority 2017, dated 2022).
# “Also recorded” adds a separate entry of the source.
# B1: GAMMA ZEIN-ZmWUS2-hexa histidine-tag protein: Gamma-zein cell penetrating peptide WUSCHEL hexahistidine-tagged translational fusion protein (SEQ ID NO:47) (protein)
# chain: VRLPPPVRLPPPLVRPPPLHHHHHHMAANAGGGGAGGGSGSGSVAAPAVCRPSGSRWTPTPEQIRMLKELYYGCGIRSPSSEQIQRITAMLRQHGKIEGKNVFYWFQNHKARERQKRRLTSLDVNVPAAGAADATTSQLGVLSLSSPPPSGAAPPSPTLGFYAAGNGGGSAVLLDTSSDWGSSGAAMATETCFLQDYMGVTDTGSSSQWPRFSSSDTIMAAAAARAATTRAPETLPLFPTCGDDGGSGSSSYLPFWGAASTTAGATSSVAIQQQHQLQEQYSFYSNSNSTQLAGTGNQDVSATAAAAAALELSLSSWCSPYPAAGSMGHHHHHH
# modifications: WUS-HISTAG-GZCPP protein sequence
# B2: ZmWUS2-hexa histidine-tag protein: Purified recombinant Zea mays WUSCHEL2 hexahistidine-tagged protein (SEQ ID NO:2) from baculovirus-infected SF9 insect cells (protein)
# chain: MAANAGGGGAGGGSGSGSVAAPAVCRPSGSRWTPTPEQIRMLKELYYGCGIRSPSSEQIQRITAMLRQHGKIEGKNVFYWFQNHKARERQKRRLTSLDVNVPAAGAADATTSQLGVLSLSSPPPSGAAPPSPTLGFYAAGNGGGSAVLLDTSSDWGSSGAAMATETCFLQDYMGVTDTGSSSQWPRFSSSDTIMAAAAARAATTRAPETLPLFPTCGDDGGSGSSSYLPFWGAASTTAGATSSVAIQQQHQLQEQYSFYSNSNSTQLAGTGNQDVSATAAAAAALELSLSSWCSPYPAAGSMGHHHHHH
# modifications: hexahistidine tag
# How the values were obtained:
# Type in all cases: cell-based, maize
# ATCC40520 microspores [1] = assay: Gene expression analysis of embryo-like structures from control and hemin-treated ATCC40520 cultures; conditions: 1 μM hemin, 8 days in vitro culture, vs control
# Procedure: Following microspore isolation, ATCC40520 microspores (see U.S. Pat. No. 5,602,310 incorporated herein by reference in its entirety) were cultured in a petri dish in a 9% sucrose induction medium as a control or a 9% sucrose induction medium supplemented with a 1 μM final concentration of hemin (Sigma-Aldrich, catalog # H9039) at 28° C. under dark conditions. After 8 days of in vitro tissue culture, four biological replicates of proliferating embryo-like structures were sampled from each of the control and the hemin-treated ATCC40520 tissue cultures for embryogenesis induction and processed for gene expression analysis using methods known in the art (data not shown).
# inbred EH microspores [2] = assay: Microspore embryogenesis in inbred EH microspore culture with hemin, MCS/ELS phenotype scoring; conditions: 1 μM hemin
# Procedure: (§1) Following microspore isolation, ATCC40520 microspores and EH, anelite inbred, that is known to be less responsive relative to the ATCC40520 genotype, were each individually cultured in a petri dish in a 9% sucrose induction medium as a control or a 9% sucrose induction medium supplemented with a 1 μM final concentration of hemin at 28° C. under dark conditions.
# (§2) Microspore phenotypes were scored for each of ATCC40520 and EH after 21 days of treatment (+/− hemin). A multicellular structure (MCS) phenotype was scored when a unicellular-derived structure resulting from randomly oriented divisions within a surrounding, intact exine wall was observed. If the surrounding exine was ruptured and a release of cells was observed, then the response was scored as a proliferative embryo-like structure (ELS).
# ATCC40520 microspores [3] = assay: Microspore embryogenesis in ATCC40520 microspore culture with hemin, MCS/ELS phenotype scoring; conditions: 1 μM hemin
# Procedure: Following microspore isolation, ATCC40520 microspores (see U.S. Pat. No. 5,602,310 incorporated herein by reference in its entirety) were cultured in a petri dish in a 9% sucrose induction medium as a control or a 9% sucrose induction medium supplemented with a 1 μM final concentration of hemin (Sigma-Aldrich, catalog # H9039) at 28° C. under dark conditions.
# as §1, §2
# isolated microspores [4] = assay: Ex situ treatment of isolated microspores with GAMMA ZEIN-ZmWUS2-hexa histidine-tag protein; conditions: vs microspores cultured without the protein
# Procedure: GAMMA ZEIN-ZmWUS2-hexa histidine-tag protein expression and purification is performed using a heterologous expression system expressing a plasmid encoding a GAMMA ZEIN-ZmWUS2-hexa histidine-tag (SEQ ID NO:46) sequence transformed into DH10Bac cells to generate baculoviruses. Baculovirus-infected SF9 insect cells are incubated for 72 hours at 27° C. The infected insect cells are harvested by centrifugation. Purification of the recombinant GAMMA ZEIN-ZmWUS2-hexa histidine-tag protein (SEQ ID NO:47) is performed as described in EXAMPLE 3.
# inbred EH microspores [5] = assay: Ex situ treatment of isolated microspores with purified ZmWUS2-hexa histidine-tag protein
# Procedure: WUSCHEL protein expression and purification was performed using a heterologous expression system expressing a plasmid encoding a ZmWUS2-hexa histidine-tag (SEQ ID NO:1) sequence transformed into DH10Bac cells (Thermo Fisher Scientific catalog #10361012) to generate baculoviruses. Baculovirus-infected SF9 insect cells (Thermo Fisher Scientific catalog #12552014) were incubated for 72 hours at 27° C. The infected insect cells were harvested by centrifugation. Purification of the recombinant ZmWUS2-hexa histidine-tag protein (SEQ ID NO:2) was performed using commercially available protein purification methods Following microspore isolation from inbred EH, ZmWUS2-hexa histidine-tag protein treatments were performed for each culture by combining 505 μL of a 4% sucrose induction media, 37.5 μL of molecular grade bovine serum albumin (BSA; 20 mg/ml) (Sigma-Aldrich catalog # B8667) and 7.5 μL of protease inhibitor (Sigma-Aldrich catalog # P9599) and with 250 μL of the purified recombinant ZmWUS2-hexa histidine-tag protein. After gently mixing, the solution was filter sterilized within a sterile environment using a 0.2 μm filter (Pall Corporation catalog #4612). Optionally, an isolation medium was buffered with L-glutathione reduced (Sigma-Aldrich catalog #G4251). […]
# isolated microspores [6] = assay: Microspore electroporation with ZmWUS2-hexa histidine-tag protein; conditions: in combination with electroporation, vs no protein and no electroporation
# Procedure: A Neon® Transfection System (Thermo Fisher Scientific catalog #MPK5000) and Neon® kit (Thermo Fisher Scientific catalog #MPK10025) is used per the manufacturer's instructions. The ex situ ZmWUS2-hexa histidine-tag protein treatment is prepared by mixing 12.5 μL of ZmWUS2-hexa histidine-tag protein (SEQ ID NO:2; 10 μg total, 0.8 μg/μL stock) with 12.5 μL Lipofectamin 3000 followed by 30 minutes incubation at room temperature. Sucrose is added to the resuspension buffer (buffer R) to a 0.4 M final concentration and filter sterilized. Isolated microspores are resuspended in a 2% (V/V) dimethyl sulfoxide (DMSO)/9% suscrose induction medium solution and incubated for 15 minutes at room temperatures, the microspores are pelleted, and the supernatant is removed. The microspores are washed three times with phosphate buffered saline (PBS; Gibco™ 10010023), resuspended in Electrolytic Buffer E (Thermo Fisher Scientific catalog #MPK5000) and mixed with the ZmWUS2-hexa histidine-tag protein/Lipofectamine 3000 solution followed by room temperature incubation for 10 minutes and then incubation on ice for 10 minutes. DMSO-mediated electroporation was used to increase ZmWUS2-hexa histidine-tag protein uptake into isolated microspores through multiple pulse conditions. […]
# [7] = test system: microspores isolated from a F1 hybrid tassel of an EHxGR genetic cross; assay: Protein transfection of microspores with ZmWUS2-hexa histidine-tag protein with or without Pro-Ject reagent
# Procedure: Transfection reagent preparation using the cationic lipid based Pro-Ject™ transfection reagent (Thermo Fisher Scientific catalog #89850) was performed by adding 250 μL of methanol to the tube containing the dried transfection reagent, vortexing for 30 seconds at top speed, and dispensing 10 μL of Pro-ject™ plus methanol to 1.5 mL Eppendorf tubes. The transfection reagent was evaporated from the tubes within a chemical fume hood for 4 hours drying time at room temperature and the tubes were stored the tubes at −20° C. until use. Upon use, 100 μL of isolation medium containing 50 ng of the purified ZmWUS2-hexa histidine-tag protein was added to each tube and 900 μL microspore culture medium was dispensed into each transfection tube to re-hydrate the transfection reagent and encapsulate the protein. The 1 mL volume of this solution was combined with a 1 mL volume of microspores isolated from a F1 hybrid tassel of an EHxGR genetic cross. The microspores were suspended in isolation medium and each 2 mL volume was dispensed into a well of a 24 well microtiter plate (Lab Safety Supply catalog #11L794). The isolation medium was further supplemented with bovine serum albumin, protease inhibitor and L-glutathione reduced, with or without the cationic lipid-based Pro-Ject™ transfection reagent, and with or with the ZmWUS2-hexa histidine-tag protein treatments (ZmWUS2-hexa histidine-tag protein buffer as a control for comparison to the ZmWUS2-hexa histidine-tag protein). Each plate was sealed with parafilm and incubated at 28° C. under dark conditions. […] After 18 days, all cells were collected and rinsed using 70 μm Fisherbrand™ cell strainer and evaluated for the activation of cellular reprogramming and the induction of microspore embryogenesis. Microspore viability was scored by counting plasmolyzed, collapsed cells (i.e. “non-viable”) and translucent, spherical cells corresponding to the original state (i.e. “viable”).
# [8] = 21 days, vs control EH microspores
molecule,measurement,setting,value
hemin,expression of embryogenic transcripts,ATCC40520 microspores [1],increased expression of embryogenic transcripts
same,expression of pollen associated transcripts,ATCC40520 microspores [1],decreased expression of pollen associated transcripts
same,cellular proliferation in responsive cultures,"inbred EH microspores [2]; 21 days of culture, vs control",increased cellular proliferation
same,percentage of microspores scored with the ELS phenotype,inbred EH microspores [2]; [8],increased
same,percentage of microspores scored with the MCS phenotype,inbred EH microspores [2]; [8],increased
same,cellular proliferation and development of embryo-like structures (ELS),"ATCC40520 microspores [3]; 9% sucrose induction medium, 21 days, vs control",increased cellular proliferation and the development of embryo-like structures (ELS)
same,quality of the embryo-like structures (proportion of spherical vs non-spherical embryoids),ATCC40520 microspores [3]; 21 days,improved the quality of the embryo-like structures
same,number of ELS in responsive cultures,ATCC40520 microspores [3]; after 21 days of treatment (+/- hemin),approximately doubled
B1,microspore responsiveness and embryogenesis induction,isolated microspores [4],improved microspore responsiveness and embryogenesis induction
B2,microspore responsiveness and embryogenesis induction,"inbred EH microspores [5]; recalcitrant elite inbred, 4% sucrose induction media, vs culture without protein",improved microspore responsiveness and embryogenesis induction
same,embryoid development (morphology),inbred EH microspores [5]; wild type microspores treated with purified protein,revealed a suspensor with root hairs; also recorded: A microspore-derived embryo with a developed radicle and root hairs was observed
same,microspore responsiveness and embryogenesis induction,isolated microspores [6],improved microspore responsiveness and embryogenesis induction
same,improvement in cell viability,"[7]; 72 hours post-isolation, 4% sucrose liquid induction medium, on average",5.1 fold
same,cell proliferation / activation of cellular reprogramming and induction of microspore embryogenesis,"[7]; combined with cationic lipid-based Pro-Ject transfection reagent, 18 days",cell proliferation was seen
same,cell viability after 18 days of culture,"[7]; without transfection reagent, vs control without protein",fewer cells were viable in the control treatment
